Reference: ChEMBL document CHEMBL3351564, “Discovery of a phosphodiesterase 9A inhibitor as a potential hypoglycemic agent” (J Med Chem, 2014)
Values after ≈ are worked out from the molar mass of the structure shown.

Legend:
[1] = target: High affinity cAMP-specific and IBMX-insensitive 3',5'-cyclic phosphodiesterase 8A (Homo sapiens, UniProt O60658); experiment: Inhibition of PDE8A1 catalytic domain (unknown origin) using [3H]-cGMP/[3H]-cAMP as substrate after 15 mins by liquid scintillation counting analysis
[2] = Plasma protein binding in human at 1 to 5 uM after 4 hrs by LC/MS/MS analysis; assay type: ADME, cell-free; settings: read-out: PPB
[3] = Solubility of the compound in simulated gastric fluid at pH 1.4 after 24 to 48 hrs by HPLC analysis; assay type: ADME; settings: simulated gi fluid
[4] = Solubility of the compound in simulated intestinal fluid at pH 6.8 after 24 to 48 hrs by HPLC analysis; assay type: ADME; settings: simulated gi fluid
[5] = target: High affinity 3',5'-cyclic-AMP phosphodiesterase 7A (Homo sapiens, UniProt Q13946); experiment: Inhibition of PDE7A1 catalytic domain (unknown origin) using [3H]-cGMP/[3H]-cAMP as substrate after 15 mins by liquid scintillation counting analysis
[6] = target: cGMP-dependent 3',5'-cyclic phosphodiesterase (Homo sapiens, UniProt O00408); experiment: Inhibition of PDE2A3 catalytic domain (unknown origin) using [3H]-cGMP/[3H]-cAMP as substrate after 15 mins by liquid scintillation counting analysis
[7] = target: cGMP-inhibited 3',5'-cyclic phosphodiesterase 3A (Homo sapiens, UniProt Q14432); experiment: Inhibition of PDE3A catalytic domain (unknown origin) using [3H]-cGMP/[3H]-cAMP as substrate after 15 mins by liquid scintillation counting analysis
[8] = Apparent clearance in CD-1 mouse liver microsomes at […] incubated for 5 mins prior to NADPH addition measured after 30 mins by LC/MS/MS analysis; assay type: ADME; settings: read-out: CL(app)
[9] = Hepatic clearance in CD-1 mouse liver microsomes at […] incubated for 5 mins prior to NADPH addition measured after 30 mins by LC/MS/MS analysis; assay type: ADME
[10] = tested on: HepG2; experiment: Hypoglycemic effect in human HepG2 cells assessed as reduction of 8-Br-cAMP/dexamethasone-induced G-6-Pase mRNA expression at 100 nM (reference value: 233%); assay type: functional; parameters: scale not given: the % may be the effect or the level left
[11] = tested on: HepG2; experiment: Hypoglycemic effect in human HepG2 cells assessed as reduction of 8-Br-cAMP/dexamethasone-induced G-6-Pase mRNA expression at 10 nM (reference value: 233%); assay type: functional; parameters: scale not given: the % may be the effect or the level left
[12] = tested on: HepG2; experiment: Hypoglycemic effect in human HepG2 cells assessed as reduction of 8-Br-cAMP/dexamethasone-induced PEPCK mRNA expression at 1000 nM (reference value: 184%); assay type: functional; parameters: scale not given: the % may be the effect or the level left
[13] = tested on: HepG2; experiment: Hypoglycemic effect in human HepG2 cells assessed as reduction of 8-Br-cAMP/dexamethasone-induced PEPCK mRNA expression at 100 nM (reference value: 184%); assay type: functional; parameters: scale not given: the % may be the effect or the level left
[14] = tested on: HepG2; experiment: Hypoglycemic effect in human HepG2 cells assessed as reduction of 8-Br-cAMP/dexamethasone-induced PEPCK mRNA expression at 10 nM (reference value: 184%); assay type: functional; parameters: scale not given: the % may be the effect or the level left
[15] = tested on: Liver; experiment: Half life in CD-1 mouse liver microsomes at […] incubated for 5 mins prior to NADPH addition measured after 30 mins by LC/MS/MS analysis; assay type: ADME; settings: 0.5 h
[16] = tested on: Mus musculus; experiment: Acute toxicity in KM mouse assessed as poisoned symptom at 1 to 1200 mg/kg, po measured up to 2 weeks; assay type: organism-based; parameters: dose 1-1200 mg/kg, route oral; settings: in vivo, 336 h
[17] = tested on: Mus musculus; experiment: Acute toxicity in KM mouse assessed as mortality at 1 to 1200 mg/kg, po measured up to 2 weeks; assay type: organism-based; parameters: dose 1-1200 mg/kg, route oral; settings: in vivo, 336 h
[18] = tested on: Mus musculus; experiment: Acute toxicity in KM mouse assessed as abnormal behaviour at 1 to 1200 mg/kg, po measured up to 2 weeks; assay type: organism-based; parameters: dose 1-1200 mg/kg, route oral; settings: in vivo, 336 h
[19] = tested on: Mus musculus; experiment: Acute toxicity in KM mouse assessed as change in water/food consumption at 1 to 1200 mg/kg, po measured up to 2 weeks; assay type: organism-based; parameters: dose 1-1200 mg/kg, route oral; settings: in vivo, 336 h
[20] = tested on: Mus musculus; experiment: Acute toxicity in KM mouse assessed as change in body weight at 1 to 1200 mg/kg, po measured up to 2 weeks; assay type: organism-based; parameters: dose 1-1200 mg/kg, route oral; settings: in vivo, 336 h
[21] = tested on: HepG2; experiment: Hypoglycemic effect in human HepG2 cells assessed as reduction of 8-Br-cAMP/dexamethasone-induced G-6-Pase mRNA expression at 1000 nM (reference value: 233%); assay type: functional; parameters: scale not given: the % may be the effect or the level left
[22] = target: High affinity cGMP-specific 3',5'-cyclic phosphodiesterase 9A (Homo sapiens, UniProt O76083); experiment: Inhibition of PDE9A2 catalytic domain (unknown origin) using [3H]-cGMP/[3H]-cAMP as substrate after 15 mins by liquid scintillation counting analysis
[23] = in vitro; settings: CD-1, mouse, liver microsomes

High affinity cAMP-specific and IBMX-insensitive 3',5'-cyclic phosphodiesterase 8A, sequence (O60658 whole entry, the tested form may be a part): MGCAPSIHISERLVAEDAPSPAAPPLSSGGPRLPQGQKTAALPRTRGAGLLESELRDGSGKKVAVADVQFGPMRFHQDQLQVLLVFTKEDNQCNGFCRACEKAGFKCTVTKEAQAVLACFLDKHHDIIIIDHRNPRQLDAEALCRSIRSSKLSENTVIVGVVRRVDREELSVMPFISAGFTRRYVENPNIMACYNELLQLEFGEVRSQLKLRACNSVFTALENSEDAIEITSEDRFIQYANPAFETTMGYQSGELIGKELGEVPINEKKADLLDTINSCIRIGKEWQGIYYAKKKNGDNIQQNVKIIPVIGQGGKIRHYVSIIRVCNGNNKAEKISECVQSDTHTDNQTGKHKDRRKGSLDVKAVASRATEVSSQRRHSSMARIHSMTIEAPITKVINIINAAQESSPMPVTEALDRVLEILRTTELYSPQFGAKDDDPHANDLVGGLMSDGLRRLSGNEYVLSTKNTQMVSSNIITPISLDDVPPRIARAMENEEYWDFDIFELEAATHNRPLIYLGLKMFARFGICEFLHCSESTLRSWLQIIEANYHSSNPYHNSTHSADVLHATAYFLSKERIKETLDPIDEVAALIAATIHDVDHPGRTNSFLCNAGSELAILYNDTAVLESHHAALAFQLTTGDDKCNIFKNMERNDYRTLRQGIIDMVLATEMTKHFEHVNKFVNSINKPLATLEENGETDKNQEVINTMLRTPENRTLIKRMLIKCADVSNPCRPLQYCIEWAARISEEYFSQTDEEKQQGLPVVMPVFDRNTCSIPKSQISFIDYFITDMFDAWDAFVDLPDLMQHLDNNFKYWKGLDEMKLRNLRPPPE
High affinity 3',5'-cyclic-AMP phosphodiesterase 7A, sequence (Q13946 whole entry, the tested form may be a part): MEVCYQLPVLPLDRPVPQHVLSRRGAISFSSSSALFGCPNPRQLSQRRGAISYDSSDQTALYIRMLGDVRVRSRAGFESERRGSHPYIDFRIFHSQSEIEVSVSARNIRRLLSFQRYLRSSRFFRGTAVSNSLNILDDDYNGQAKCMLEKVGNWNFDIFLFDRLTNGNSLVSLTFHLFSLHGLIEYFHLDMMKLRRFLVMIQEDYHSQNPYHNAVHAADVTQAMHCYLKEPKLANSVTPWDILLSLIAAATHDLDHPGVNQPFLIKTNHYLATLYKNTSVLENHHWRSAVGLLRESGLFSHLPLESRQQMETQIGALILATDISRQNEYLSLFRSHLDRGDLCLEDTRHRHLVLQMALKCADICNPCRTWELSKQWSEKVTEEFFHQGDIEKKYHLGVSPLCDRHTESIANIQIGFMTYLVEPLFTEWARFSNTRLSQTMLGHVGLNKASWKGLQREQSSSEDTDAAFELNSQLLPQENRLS
cGMP-dependent 3',5'-cyclic phosphodiesterase, sequence (O00408 whole entry, the tested form may be a part): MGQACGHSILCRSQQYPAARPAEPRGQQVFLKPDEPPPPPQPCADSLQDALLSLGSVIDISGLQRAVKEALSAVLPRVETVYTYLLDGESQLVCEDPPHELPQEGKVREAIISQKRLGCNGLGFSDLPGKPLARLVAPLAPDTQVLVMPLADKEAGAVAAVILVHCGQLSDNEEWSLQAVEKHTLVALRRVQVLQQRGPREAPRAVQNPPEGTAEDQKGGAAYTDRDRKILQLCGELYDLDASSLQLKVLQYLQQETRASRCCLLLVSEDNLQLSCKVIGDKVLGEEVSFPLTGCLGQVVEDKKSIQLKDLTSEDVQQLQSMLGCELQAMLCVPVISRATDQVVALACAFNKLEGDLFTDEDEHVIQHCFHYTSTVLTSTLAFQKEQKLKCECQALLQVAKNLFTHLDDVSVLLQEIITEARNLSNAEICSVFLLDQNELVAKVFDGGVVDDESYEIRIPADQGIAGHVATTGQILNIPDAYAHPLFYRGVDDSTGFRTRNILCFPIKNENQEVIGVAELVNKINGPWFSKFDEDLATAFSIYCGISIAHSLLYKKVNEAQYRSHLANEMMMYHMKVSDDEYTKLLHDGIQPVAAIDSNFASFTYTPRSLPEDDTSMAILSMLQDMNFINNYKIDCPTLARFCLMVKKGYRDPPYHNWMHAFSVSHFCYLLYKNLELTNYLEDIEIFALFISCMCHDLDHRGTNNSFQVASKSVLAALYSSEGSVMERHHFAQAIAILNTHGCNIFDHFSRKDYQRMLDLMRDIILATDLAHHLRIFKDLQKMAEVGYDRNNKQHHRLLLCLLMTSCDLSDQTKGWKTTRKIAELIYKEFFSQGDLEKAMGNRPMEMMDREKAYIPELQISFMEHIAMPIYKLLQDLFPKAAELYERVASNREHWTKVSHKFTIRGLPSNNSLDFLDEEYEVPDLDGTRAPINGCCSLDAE
High affinity cGMP-specific 3',5'-cyclic phosphodiesterase 9A, sequence (O76083 whole entry, the tested form may be a part): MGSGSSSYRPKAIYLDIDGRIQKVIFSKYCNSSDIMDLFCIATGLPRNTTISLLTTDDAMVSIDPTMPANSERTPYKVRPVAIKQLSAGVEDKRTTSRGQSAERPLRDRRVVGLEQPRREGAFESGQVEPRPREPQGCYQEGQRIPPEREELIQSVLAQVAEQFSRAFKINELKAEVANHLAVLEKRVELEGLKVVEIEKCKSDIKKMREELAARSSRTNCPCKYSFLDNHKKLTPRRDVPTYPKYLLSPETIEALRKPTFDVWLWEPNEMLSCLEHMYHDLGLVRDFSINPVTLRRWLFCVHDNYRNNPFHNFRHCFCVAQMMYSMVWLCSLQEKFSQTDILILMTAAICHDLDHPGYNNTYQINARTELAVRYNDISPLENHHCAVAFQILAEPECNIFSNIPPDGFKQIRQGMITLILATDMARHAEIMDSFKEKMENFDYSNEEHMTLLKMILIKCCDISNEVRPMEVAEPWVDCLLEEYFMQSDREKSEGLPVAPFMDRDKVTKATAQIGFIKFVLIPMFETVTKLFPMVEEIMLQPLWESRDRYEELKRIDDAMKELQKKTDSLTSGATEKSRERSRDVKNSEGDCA
cGMP-inhibited 3',5'-cyclic phosphodiesterase 3A, sequence (Q14432 whole entry, the tested form may be a part): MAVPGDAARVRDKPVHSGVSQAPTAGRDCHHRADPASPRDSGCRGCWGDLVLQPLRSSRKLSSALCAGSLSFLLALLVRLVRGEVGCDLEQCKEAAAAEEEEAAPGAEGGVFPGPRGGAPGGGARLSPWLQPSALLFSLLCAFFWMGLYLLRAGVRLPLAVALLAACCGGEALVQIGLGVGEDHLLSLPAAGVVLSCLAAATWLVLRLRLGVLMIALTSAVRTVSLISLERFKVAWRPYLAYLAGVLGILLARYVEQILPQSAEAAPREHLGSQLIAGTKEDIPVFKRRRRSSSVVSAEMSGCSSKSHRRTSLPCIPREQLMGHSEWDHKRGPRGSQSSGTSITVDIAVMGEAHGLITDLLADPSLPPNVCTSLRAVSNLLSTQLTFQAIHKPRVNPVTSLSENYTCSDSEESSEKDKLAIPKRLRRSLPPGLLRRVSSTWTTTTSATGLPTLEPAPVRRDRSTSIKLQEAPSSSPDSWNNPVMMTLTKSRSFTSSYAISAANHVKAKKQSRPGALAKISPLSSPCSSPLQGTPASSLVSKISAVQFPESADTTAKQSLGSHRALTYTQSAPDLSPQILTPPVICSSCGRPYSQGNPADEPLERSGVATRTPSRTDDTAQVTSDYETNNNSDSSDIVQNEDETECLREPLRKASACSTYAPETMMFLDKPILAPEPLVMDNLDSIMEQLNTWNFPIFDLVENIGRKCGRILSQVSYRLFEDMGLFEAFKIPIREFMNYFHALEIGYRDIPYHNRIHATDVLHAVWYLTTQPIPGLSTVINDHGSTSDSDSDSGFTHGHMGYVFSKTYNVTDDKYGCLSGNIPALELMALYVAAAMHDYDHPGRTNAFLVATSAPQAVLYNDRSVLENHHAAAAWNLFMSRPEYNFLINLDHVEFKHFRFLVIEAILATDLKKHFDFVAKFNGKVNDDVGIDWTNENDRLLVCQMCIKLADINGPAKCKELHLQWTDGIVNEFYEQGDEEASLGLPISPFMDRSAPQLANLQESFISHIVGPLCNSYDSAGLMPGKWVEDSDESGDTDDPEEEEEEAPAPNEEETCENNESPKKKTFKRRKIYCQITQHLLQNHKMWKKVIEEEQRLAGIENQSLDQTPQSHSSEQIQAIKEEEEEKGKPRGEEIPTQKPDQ

SMILES	IC50 [1] [µM]	fraction unbound at 4 h, up to 5 µM [2]	solubility [3] [µg/mL]	solubility [4] [µg/mL]	IC50 [5] [µM]	IC50 [6] [µM]	CLint scaled at […] [8] [mL/min/kg]	CLhep predicted at […] [9] [mL/min/kg]	t1/2 [15] [min]	further results
COc1ccc(NC(=O)[C@H](C)Nc2nc3c(cnn3C3CCCC3)c(=O)[nH]2)cc1	> 100	< 0.057	23 (≈ 58 µM)	31 (≈ 78.2 µM)						
COc1ccc(NC(=O)[C@H](C)Nc2nc3c(cnn3-c3ccccc3Cl)c(=O)[nH]2)cc1	> 100	< 0.057	8 (≈ 18.2 µM)	13 (≈ 29.6 µM)	> 100	> 50				IC50 [7]: > 50 µM
CC(=O)CC(c1ccccc1)c1c(O)c2ccccc2oc1=O (stereo not drawn) [WARFARIN]							30.9	23		
COc1ccc(NC(=O)[C@@H](C)Nc2nc3c(cnn3C3CCCC3)c(=O)[nH]2)cc1	> 100	< 0.057	26 (≈ 65.6 µM)			13	244	65.8	22.3	Activity [10]: 93.2%; Activity [11]: 98.4%; Activity [12]: 105%; Activity [13]: 96.5%; Activity [14]: 108%; Activity [16]: Non-toxic; Activity [17]: Non-toxic; Activity [18]: Non-toxic; Activity [19]: Non-toxic; Activity [20]: Non-toxic; Activity [21]: 97.2%
COc1ccc(NC(=O)[C@@H](C)Nc2nc3c(cnn3-c3ccccc3Cl)c(=O)[nH]2)cc1	> 100				51.2					IC50 [22]: 0.0064 µM
C[C@]12CC[C@H]3[C@@H](CCC4=CC(=O)CC[C@@]43C)[C@@H]1CC[C@@H]2O [TESTOSTERONE]							2730	87.1	2	hepatic extraction ratio at 0.5 h, […] [23]: 0.968
